The text below walks through data of US20120004222A1, “CB2 RECEPTOR LIGANDS FOR THE TREATMENT OF PAIN” (priority 2007, published 2012).

One may read the IC50 as the concentration that gives 50% inhibition.

The structures appear in SMILES notation. Like-named read-outs stand apart in the source and are kept apart here.

The assay addresses T1, human CB2 (Homo sapiens, UniProt P34972).
T1 construct: expressed in transfected cells; host or cells: CHO (Chinese Hamster Ovary) cells
Briefly: Cyclic AMP assay (HTRF) in CHO cells expressing human CB2. It counts as cell-based. On the procedure: Chinese Hamster Ovary cells (CHO) expressing human CB1 or human CB2 (3.3×10^5 cells/ml) were preincubated for 15 min at room temperature with tested agonist and 3-isobutyl-1-methylxanthine (IBMX; 200 μM) in phosphate buffered saline containing 1 mg/ml BSA (assay buffer) followed by 30 min incubation with forskolin in a total volume of 10 μl. The optimal forskolin concentration for each cell line was established in a separate experiment and adjusted to stimulate 70% of maximal cAMP response. cAMP content was measured using an HTRF assay (CisBio) according to the manufacturer's two step protocol.
Background: In TR-FRET formats the signal depends on donor and acceptor labels being close together.

The mark [1] stands for this setting: CHO cells expressing human CB2, forskolin-stimulated cAMP, IBMX 200 μM, read-out: CB2 IC50.

T1 sequence (P34972 whole entry): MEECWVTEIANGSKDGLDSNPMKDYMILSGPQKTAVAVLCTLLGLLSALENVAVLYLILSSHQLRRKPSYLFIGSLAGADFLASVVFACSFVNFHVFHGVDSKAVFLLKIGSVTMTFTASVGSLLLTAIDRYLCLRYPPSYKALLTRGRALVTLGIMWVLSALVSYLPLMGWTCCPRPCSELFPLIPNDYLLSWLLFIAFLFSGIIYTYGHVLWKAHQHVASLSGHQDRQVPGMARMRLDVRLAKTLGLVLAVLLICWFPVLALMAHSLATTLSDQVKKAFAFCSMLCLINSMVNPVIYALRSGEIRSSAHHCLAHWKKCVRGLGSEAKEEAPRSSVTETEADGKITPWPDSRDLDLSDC

Regarding `Fc1ccc(-c2cc(-c3nc(CN4CCOCC4)c4ccccn34)[nH]n2)cc1` [Example III-1, 3-[3-(4-fluorophenyl)-1H-pyrazol-5-yl]-1-(morpholin-4-ylmethyl)imidazo[1,5-a]pyridine], the half-maximal inhibitory concentration (IC50) under setting [1] was found to be 617 nM.
Take `FC1(F)CCN(Cc2nc(-c3nc(-c4ccc(Cl)cc4)c[nH]3)n3ccccc23)CC1` [II-2, 3-[4-(4-CHLOROPHENYL)-1H-IMIDAZOL-2- YL]-1-[(4,4-DIFLUOROPIPERIDIN-1- YL)METHYL]IMIDAZO[1,5-A]PYRIDINE]: the concentration for half-maximal inhibition (IC50) under setting [1] was determined as 199 nM.
`FC1(F)CCN(Cc2nc(-c3cccc(C(F)(F)F)c3)n3ccccc23)CC1` [Example IV-1, 1-[(4,4-difluoropiperidin-1-yl)methyl]-3-[3-(trifluoromethyl)phenyl]imidazo[1,5-α]pyridine] registered an IC50 of 17 nM.
`c1ccc2[nH]c(-c3nc(CN4CCOCC4)c4ccccn34)nc2c1` [Example I-1, 2-[1-(morpholin-4-ylmethyl)imidazo[1,5-a]pyridin-3-yl]-1H-benzimidazole]: the IC50 under setting [1] is 1260 nM.
Still for that read-out and setting: as for `FC1(F)CCN(Cc2nc(-c3nc(-c4ccc(Cl)cc4Cl)c[nH]3)n3ccccc23)CC1` [II-3, 3-[4-(2,4-DICHLOROPHENYL)-1H- IMIDAZOL-2-YL]-1-[(4,4- DIFLUOROPIPERIDIN-1- YL)METHYL]IMIDAZO[1,5-A]PYRIDINE], the figure is 146 nM.
`FC1(F)CCN(Cc2nc(-c3nc(-c4ccccc4)c[nH]3)n3ccccc23)CC1` [Example II-1, 1-[(4,4-difluoropiperidin-1-yl)methyl]-3-(4-phenyl-1H-imidazol-2-yl)imidazo[1,5-a]pyridine]: the IC50 stood at 178 nM.
For the compound `FC1(F)CCN(Cc2nc(-c3nc(-c4cccc(C(F)(F)F)c4)c[nH]3)n3ccccc23)CC1` [II-5, 1-[(4,4-DIFLUOROPIPERIDIN-1- YL)METHYL]-3-{4-[3- (TRIFLUOROMETHYL)PHENYL]-1H- IMIDAZOL-2-YL}IMIDAZO [1,5-A]PYRIDINE], the IC50 under setting [1] is 165 nM.
`FC1(F)CCN(Cc2nc(-c3cccc(-n4cccn4)c3)n3ccccc23)CC1` [IV-7, 1-[(4,4-DIFLUOROPIPERIDIN-1- YL)METHYL]-3-[3-(1H-PYRAZOL-1- YL)PHENYL]IMIDAZO[1,5-A]PYRIDINE]: the IC50 under setting [1] was determined as 113 nM.
`Fc1ccc(-c2c[nH]c(-c3nc(CN4CCC(F)(F)CC4)c4ccccn34)n2)cc1F` [II-4, 3-[4-(3,4-DIFLUOROPHENYL)-1H- IMIDAZOL-2-YL]-1-[(4,4- DIFLUOROPIPERIDIN-1-YL)METHYL] IMIDAZO[1,5-A]PYRIDINE]: under setting [1], the IC50 was 171 nM.
On the same count and under the same terms, as for `FC1(F)CCN(Cc2nc(-c3ccc(-c4ccn[nH]4)cc3)n3ccccc23)CC1` [IV-4, 1-[(4,4-DIFLUOROPIPERIDIN-1- YL)METHYL]-3-[4-(1H-PYRAZOL-5- YL)PHENYL]IMIDAZO[1,5-A]PYRIDINE], the figure is 116 nM.
The compound `CC(C)(O)CCc1ccc(-c2nc(CN3CCC(F)(F)CC3)c3ccccn23)cc1` [IV-6, 4-(4-{1-[(4,4-DIFLUOROPIPERIDIN-1- YL)METHYL]IMIDAZO[1,5-A]PYRIDIN-3- YL}PHENYL)-2-METHYLBUTAN-2-OL] yielded an IC50 of 1350 nM.
